Patent publication US20080222745A1, “Colcemid-Treatment of Oocytes to enhance Nuclear Transfer Cloning” (Utah State University, priority 2007, published 2008)
“And” between values parts separate entries of the source, which are not always exact repeats. Equal values may be shown once. “Also recorded” adds a separate entry of the source. Read-outs that look alike come from different tables or passages of the source. Marks after values point to notes of the source that are not given here.

Experiments:
bovine oocytes [1] = conditions: colcemid vs control, 15-22 hr maturation
Description: Oocytes were vortexed in 1 ml PB1+ containing 10 mg/ml hyaluronidase for 4 minutes to completely remove cumulus cells. Oocytes of good quality were selected for use. Oocytes were loaded with Ca^2+ indicator by incubation in 2 μM Fura-2 AM ester (Molecular Probes, Eugene, Oreg.) and 0.02% Pluronic F-127 (Molecular Probes) in Ca^2+- and Mg^2+-free phosphate buffered saline (Hyclone Laboratories) containing 0.32 mM sodium pyruvate, 5.55 mM glucose, 3 mg/ml BSA, and 100 μM EGTA at 39° C. in darkness for 45 min. After loading with indicator, oocytes were washed extensively with PB1+ (phosphate-buffered saline with Ca^2+ and Mg^2+ plus 5.55 mM glucose, 0.32 mM sodium pyruvate, 3 mg/ml BSA) and maintained in this solution at 39° C. until use.
Fura-2 loaded oocytes were transferred to a 50-μl drop of PB1+ medium covered with mineral oil.

bovine oocytes [2] = assay: Membrane projections of bovine oocytes after colcemid treatment; format: cell-based; conditions: for oocytes exhibiting an obvious membrane projection: colcemid treatment for 2 to 4 hr
bovine NT blastocysts = assay: Chromosomal analysis and cell number count of Day 7 NT blastocysts; format: cell-based; conditions: for No. cells blastocysts (mean ± SD): oocytes matured 16-17 hours, 0.2 μg/ml for 2-3 hours; for Cell number of blastocysts (mean ± SD): 0.2 μg/ml for 2-3 hr
Description: Day 7 blastocysts were prepared and examined for their cytogenetic composition and the number of nuclei contained was verified. […] Chromosomes were examined at 1000× under a Zeiss microscope, and the chromosome composition was determined for each blastocyst.

[3] = test system: NT embryos transferred to recipient cows; assay: Pregnancy rates after transfer of NT embryos to recipient cows; format: in vivo, bovine
Excerpt: FIG. 1 is a diagram showing pregnancy rates throughout gestation following transfer of NT embryos derived from colcemid-treated versus untreated heifer cytoplasts. […] Six to seven days after NT, morulae and blastocysts were transferred to recipient cows. The solid bars show pregnancy rates for nuclear transfer embryos generated from heifer oocytes which were not treated with colcemid.
The day 6-7 morulae and blastocysts were selected and transferred to recipient cows. A total of 191 recipient cows were used for embryo transfer. Forty cows received embryos from colcemid-treated oocytes and 151 cows received embryos from non-treated oocytes. Pregnancy rates were monitored throughout gestation.

CN[C@H]1CCc2cc(OC)c(OC)c(OC)c2-c2ccc(OC)c(=O)cc21 [colcemid, N-deacetyl-N-methylcolchicine]
intracellular calcium transients, trend between treatments (bovine oocytes [1]): No trend | No. oocytes with blebs or Pb1 + bleb (%) (bovine oocytes [2]; oocytes with PB1 matured 16-17 hr, 0.2 μg/ml for 2 h, 26 of 36 oocytes): 26 (72.2) % | No. oocytes with blebs or Pb1 + bleb (%) (bovine oocytes [2]; oocytes with PB1 matured 16-17 hr, 0.2 μg/ml for 4 h, 31 of 39 oocytes): 31 (79.5) % | No. oocytes with blebs or Pb1 + bleb (%) (bovine oocytes [2]; oocytes with PB1 matured 16-17 hr, 0.4 μg/ml for 2 h, 29 of 38 oocytes): 29 (76.3) % | No. oocytes with blebs or Pb1 + bleb (%) (bovine oocytes [2]; oocytes with PB1 matured 16-17 hr, 0.4 μg/ml for 4 h, 28 of 38 oocytes): 28 (73.6) % | oocytes exhibiting an obvious membrane projection (bovine oocytes [2]; oocytes with PB1 matured 16-17 hr): approximately 80% | No. oocytes with blebs or Pb1 + bleb (%) (bovine oocytes [2]; oocytes without PB1 matured 16-17 hr, 0.1 μg/ml for 1 h, 32 of 46 oocytes): 32 (69.6) % | No. oocytes with blebs or Pb1 + bleb (%) (bovine oocytes [2]; oocytes without PB1 matured 16-17 hr, 0.1 μg/ml for 2 h, 39 of 48 oocytes): 39 (81.2) % | No. oocytes with blebs or Pb1 + bleb (%) (bovine oocytes [2]; oocytes without PB1 matured 16-17 hr, 0.1 μg/ml for 4 h, 43 of 46 oocytes): 43 (93.4) % | No. oocytes with blebs or Pb1 + bleb (%) (bovine oocytes [2]; oocytes without PB1 matured 16-17 hr, 0.2 μg/ml for 2 h, 33 of 42 oocytes): 33 (78.6) % | No. oocytes with blebs or Pb1 + bleb (%) (bovine oocytes [2]; oocytes without PB1 matured 16-17 hr, 0.2 μg/ml for 4 h, 38 of 42 oocytes): 38 (90.5) % | No. oocytes with blebs or Pb1 + bleb (%) (bovine oocytes [2]; oocytes without PB1 matured 16-17 hr, 0.4 μg/ml for 2 h, 35 of 43 oocytes): 35 (81.3) % | No. oocytes with blebs or Pb1 + bleb (%) (bovine oocytes [2]; oocytes without PB1 matured 16-17 hr, 0.4 μg/ml for 4 h, 34 of 41 oocytes): 34 (82.9) % | oocytes exhibiting an obvious membrane projection (bovine oocytes [2]; oocytes without PB1 matured 16-17 hr): 80-93% | Cell numbers of blastocysts vs control groups (bovine NT blastocysts; colcemid-treated groups vs control groups): numerically higher; also recorded: numerical higher | No. cells blastocysts (mean ± SD) (bovine NT blastocysts; culture system BCR): 50.3 ± 7.6^c | No. cells blastocysts (mean ± SD) (bovine NT blastocysts; culture system SCR and co-culture): 107.8 ± 21.6^a | No. cells blastocysts (mean ± SD) (bovine NT blastocysts; culture system SCR): 70.5 ± 7.8^b | cell number of blastocysts vs untreated (bovine NT blastocysts; embryos cultured in SCR and BCR systems): increased | Cell number of blastocysts (mean ± SD) (bovine NT blastocysts; oocytes matured 14-15 hr, without PB1): 113 ± 10 | Cell number of blastocysts (mean ± SD) (bovine NT blastocysts; oocytes matured 16-17 hr, with PB1): 103 ± 20 | Cell number of blastocysts (mean ± SD) (bovine NT blastocysts; oocytes matured 16-17 hr, without PB1): 118 ± 17 | Cell number of blastocysts (mean ± SD) (bovine NT blastocysts; oocytes matured 19-20 hr, with PB1): 91 ± 9 | Cell number of blastocysts (mean ± SD) (bovine NT blastocysts; oocytes matured 19-20 hr, without PB1): 107 ± 11 | term rate ([3]; MI heifer oocytes matured 16-17 hr, 0.2 or 0.4 μg/ml colcemid 2-3 hr, 40 recipient cows, non-treated group 3.3%): 12.5% | pregnancy rates vs non-treated group ([3]; at 60, 90, 180 days, P<0.05): Higher | Blastocyst (%) (bovine NT embryos; Table 3: oocytes matured 16-17 hr, 0.2 μg/ml for 2-3 h, 38 of 90 embryos cultured): 38 (42.2)^a % | Morula (%) (bovine NT embryos; Table 3: oocytes matured 16-17 hr, 0.2 μg/ml for 2-3 h, 44 of 90 embryos cultured): 44 (48.9)^a % | 2-cell (%) (bovine NT embryos; Table 3: oocytes matured 16-17 hr, 0.2 μg/ml for 2-3 h, 76 of 90 embryos cultured): 76 (84.4) % | cleavage of NT embryos (bovine NT embryos; among treatment groups, vs controls, 0.2 μg/ml for 2-3 hr): no difference | rate of hatched blastocysts vs untreated groups (bovine NT embryos; colcemid groups vs untreated groups): much higher | rate of morula and blastocyst development vs untreated groups (bovine NT embryos; culture in SCR or BCR media): improved | Blastocyst (%) (bovine NT embryos; culture system BCR, oocytes matured 16-17 hours, 0.2 μg/ml for 2-3 hours, 20 of 110 cloned embryos, 5% CO2 in air): 18.6% and 20 (18.2)^c % | Morula (%) (bovine NT embryos; culture system BCR, oocytes matured 16-17 hours, 0.2 μg/ml for 2-3 hours, 27 of 110 cloned embryos): 27 (24.5)^b % | 2-cell (%) (bovine NT embryos; culture system BCR, oocytes matured 16-17 hours, 0.2 μg/ml for 2-3 hours, 81 of 110 cloned embryos): 81 (73.6) % | Hatched blastocyst (%) (bovine NT embryos; culture system BCR, oocytes matured 16-17 hours, 0.2 μg/ml for 2-3 hours, 110 cloned embryos): 0% | Hatched blastocyst (%) (bovine NT embryos; culture system SCR and co-culture, oocytes matured 16-17 hours, 0.2 μg/ml for 2-3 hours, 19 of 86 cloned embryos): 19 (22.0)^a % | Blastocyst (%) (bovine NT embryos; culture system SCR and co-culture, oocytes matured 16-17 hours, 0.2 μg/ml for 2-3 hours, 34 of 86 cloned embryos): 39.5% and 34 (39.5)^a % | Morula (%) (bovine NT embryos; culture system SCR and co-culture, oocytes matured 16-17 hours, 0.2 μg/ml for 2-3 hours, 42 of 86 cloned embryos): 42 (48.8)^a % | 2-cell (%) (bovine NT embryos; culture system SCR and co-culture, oocytes matured 16-17 hours, 0.2 μg/ml for 2-3 hours, 74 of 86 cloned embryos): 74 (86.0) % | Hatched blastocyst (%) (bovine NT embryos; culture system SCR, oocytes matured 16-17 hours, 0.2 μg/ml for 2-3 hours, 5 of 135 cloned embryos): 5 (3.7)^b % | Blastocyst (%) (bovine NT embryos; culture system SCR, oocytes matured 16-17 hours, 0.2 μg/ml for 2-3 hours, 31 of 135 cloned embryos): 31 (23.0)^b % | Morula (%) (bovine NT embryos; culture system SCR, oocytes matured 16-17 hours, 0.2 μg/ml for 2-3 hours, 41 of 135 cloned embryos): 41 (30.3)^b % | 2-cell (%) (bovine NT embryos; culture system SCR, oocytes matured 16-17 hours, 0.2 μg/ml for 2-3 hours, 96 of 135 cloned embryos): 96 (71.1) % | Hatching Blastocyst (%) (bovine NT embryos; oocytes matured 14-15 hr, without PB1, 0.2 μg/ml for 2-3 hr, 26 of 100 embryos cultured): 26 (26)^a % | Blastocyst (%) (bovine NT embryos; oocytes matured 14-15 hr, without PB1, 0.2 μg/ml for 2-3 hr, 40 of 100 embryos cultured): 40% and 40 (40)^a % | Morula (%) (bovine NT embryos; oocytes matured 14-15 hr, without PB1, 0.2 μg/ml for 2-3 hr, 48 of 100 embryos cultured): 48 (48) % | 2-cell (%) (bovine NT embryos; oocytes matured 14-15 hr, without PB1, 0.2 μg/ml for 2-3 hr, 85 of 100 embryos cultured): 85 (85) % | Hatching Blastocyst (%) (bovine NT embryos; oocytes matured 16-17 hr, with PB1, 0.2 μg/ml for 2-3 hr, 21 of 81 embryos cultured): 21 (25.9)^a % | Blastocyst (%) (bovine NT embryos; oocytes matured 16-17 hr, with PB1, 0.2 μg/ml for 2-3 hr, 36 of 81 embryos cultured): 44.4% and 36 (44.4)^a % | Morula (%) (bovine NT embryos; oocytes matured 16-17 hr, with PB1, 0.2 μg/ml for 2-3 hr, 45 of 81 embryos cultured): 45 (55.6) % | 2-cell (%) (bovine NT embryos; oocytes matured 16-17 hr, with PB1, 0.2 μg/ml for 2-3 hr, 69 of 81 embryos cultured): 69 (85.2) % | Hatching Blastocyst (%) (bovine NT embryos; oocytes matured 16-17 hr, without PB1, 0.2 μg/ml for 2-3 hr, 22 of 90 embryos cultured): 22 (24.2)^a % | Blastocyst (%) (bovine NT embryos; oocytes matured 16-17 hr, without PB1, 0.2 μg/ml for 2-3 hr, 38 of 90 embryos cultured): 42.2% and 38 (42.2)^a % | Morula (%) (bovine NT embryos; oocytes matured 16-17 hr, without PB1, 0.2 μg/ml for 2-3 hr, 44 of 90 embryos cultured): 44 (48.9) % | 2-cell (%) (bovine NT embryos; oocytes matured 16-17 hr, without PB1, 0.2 μg/ml for 2-3 hr, 76 of 90 embryos cultured): 76 (84.4) % | Blastocyst (%) (bovine NT embryos; oocytes matured 16-17 hr, 0.2 μg/ml for 5-6 h, 32 of 76 embryos cultured): 32 (42.1)^a % | Morula (%) (bovine NT embryos; oocytes matured 16-17 hr, 0.2 μg/ml for 5-6 h, 37 of 76 embryos cultured): 37 (48.7)^a % | 2-cell (%) (bovine NT embryos; oocytes matured 16-17 hr, 0.2 μg/ml for 5-6 h, 69 of 76 embryos cultured): 69 (90.8) % | Blastocyst (%) (bovine NT embryos; oocytes matured 16-17 hr, 0.4 μg/ml for 2-3 h, 32 of 73 embryos cultured): 32 (43.8)^a % | Morula (%) (bovine NT embryos; oocytes matured 16-17 hr, 0.4 μg/ml for 2-3 h, 37 of 73 embryos cultured): 37 (50.7)^a % | 2-cell (%) (bovine NT embryos; oocytes matured 16-17 hr, 0.4 μg/ml for 2-3 h, 66 of 73 embryos cultured): 66 (90.4) % | Blastocyst (%) (bovine NT embryos; oocytes matured 16-17 hr, 0.4 μg/ml for 5-6 h, 31 of 81 embryos cultured): 31 (38.8)^a % | Morula (%) (bovine NT embryos; oocytes matured 16-17 hr, 0.4 μg/ml for 5-6 h, 39 of 81 embryos cultured): 39 (48.1)^a % | 2-cell (%) (bovine NT embryos; oocytes matured 16-17 hr, 0.4 μg/ml for 5-6 h, 66 of 81 embryos cultured): 66 (81.5) % | Blastocyst (%) (bovine NT embryos; oocytes matured 19-20 hr, with PB1, 0.2 μg/ml for 2-3 hr, 30 of 107 embryos cultured): 30 (28.0)^b % | Morula (%) (bovine NT embryos; oocytes matured 19-20 hr, with PB1, 0.2 μg/ml for 2-3 hr, 38 of 107 embryos cultured): 38 (35.5) % | 2-cell (%) (bovine NT embryos; oocytes matured 19-20 hr, with PB1, 0.2 μg/ml for 2-3 hr, 88 of 107 embryos cultured): 88 (82.2) % | Hatching Blastocyst (%) (bovine NT embryos; oocytes matured 19-20 hr, with PB1, 0.2 μg/ml for 2-3 hr, printed count 6, 107 embryos cultured): 6 (15.0)^b % | Hatching Blastocyst (%) (bovine NT embryos; oocytes matured 19-20 hr, without PB1, 0.2 μg/ml for 2-3 hr, 14 of 66 embryos cultured): 14 (21.2)^a % | Blastocyst (%) (bovine NT embryos; oocytes matured 19-20 hr, without PB1, 0.2 μg/ml for 2-3 hr, 25 of 66 embryos cultured): 38% and 25 (37.9)^a % | Morula (%) (bovine NT embryos; oocytes matured 19-20 hr, without PB1, 0.2 μg/ml for 2-3 hr, 32 of 66 embryos cultured): 32 (48.5) % | 2-cell (%) (bovine NT embryos; oocytes matured 19-20 hr, without PB1, 0.2 μg/ml for 2-3 hr, 56 of 66 embryos cultured): 56 (84.8) % | average blastocyst development rate (bovine NT embryos; under 5% CO2 in air, especially oocytes matured for 14 to 17 hr and treated with colcemid): over 40%
